From ChEMBL document CHEMBL4665805, “Expression of the Clifednamide Biosynthetic Pathway in Streptomyces Generates 27,28-seco-Derivatives” (J Nat Prod, 2020)
The source made the active and inactive calls. No cut-off for these calls is given here.

Assays:
[1] = test system: Pythium aphanidermatum; assay: Antimicrobial activity against Pythium aphanidermatum at 50 microg/disk by disc diffusion assay; assay type: functional, organism-based; details: dose 50.0 µg/disk
[2] = test system: Streptomyces sp.; assay: Antimicrobial activity against Streptomyces sp. S001 at 20 microg/disk by disc diffusion assay; assay type: functional, organism-based; details: dose 20.0 µg/disk
[3] = test system: Xanthomonas oryzae; assay: Antimicrobial activity against Xanthomonas oryzae pv. oryzicola RS105 at 20 microg/disk by disc diffusion assay; assay type: functional; details: dose 20.0 µg/disk
[4] = test system: Bacillus subtilis; assay: Antimicrobial activity against Bacillus subtilis at 20 microg/disk by disc diffusion assay; assay type: functional, organism-based; details: dose 20.0 µg/disk
[5] = test system: Salmonella typhimurium; assay: Antimicrobial activity against Salmonella enterica serovar Typhimurium UK-1 x8956 at 20 microg/disk by disc diffusion assay; assay type: functional, organism-based; details: Salmonella enterica subsp. enterica serovar Typhimurium, dose 20.0 µg/disk
[6] = test system: Staphylococcus aureus; assay: Antimicrobial activity against Staphylococcus aureus ATCC 25923 at 20 microg/disk by disc diffusion assay; assay type: functional, organism-based; details: dose 20.0 µg/disk
[7] = test system: Fusarium graminearum; assay: Antimicrobial activity against Fusarium graminearum at 50 microg/disk by disc diffusion assay; assay type: functional, organism-based; details: dose 50.0 µg/disk
[8] = test system: MIA PaCa-2; assay: Cytotoxicity against human MIA PaCa-2 cells assessed as reduction in cell viability by MTT assay; assay type: functional, cell-based
[9] = test system: A549; assay: Cytotoxicity against human A549 cells assessed as reduction in cell viability by MTT assay; assay type: functional, cell-based

## C[C@@H]1C[C@H]2[C@@H](C=C[C@@H]3[C@H]4C/C=C\C(=O)NCC[C@H](O)[C@@H]5NC(=O)C(=C5O)C(=O)/C=C/[C@@H]4C[C@@H]32)[C@@H]1C(=O)CO
[1]
  Activity: inactive
[2]
  Activity: inactive
[3]
  Activity: inactive
[4]
  Activity: inactive
[5]
  Activity: inactive
[6]
  Activity: inactive
[7]
  Activity: inactive

## COc1cccc2c1C(=O)c1c(O)c3c(c(O)c1C2=O)C[C@@](O)(C(=O)CO)C[C@@H]3O[C@H]1C[C@H](N)[C@H](O)[C@H](C)O1 [DOXORUBICIN]
[8]
  IC50: 430 nM

## CC(O)[C@H]1[C@@H]2C=C[C@@H]3/C=C/C=C/C(=O)NCC[C@H](O)[C@@H]4NC(=O)C(=C4O)C(=O)/C=C/C=C/[C@@H]3[C@H]2C[C@H]1C (some centres undefined)
[1]
  Activity: inactive
[2]
  Activity: inactive
[3]
  Activity: inactive
[4]
  Activity: inactive
[5]
  Activity: inactive
[6]
  Activity: inactive
[7]
  Activity: inactive

## CC(=O)[C@H]1[C@@H]2C=C[C@@H]3/C=C/C=C/C(=O)NCCC[C@@H]4NC(=O)C(=C4O)C(=O)/C=C/C=C/[C@@H]3[C@H]2C[C@H]1C
[1]
  Activity: inactive
[2]
  Activity: inactive
[3]
  Activity: inactive
[4]
  Activity: inactive
[5]
  Activity: inactive
[6]
  Activity: inactive
[7]
  Activity: inactive

## CC(=O)[C@H]1[C@@H]2C=C[C@@H]3[C@H]4C/C=C\C(=O)NCC[C@H](O)[C@@H]5NC(=O)C(=C5O)C(=O)/C=C/[C@@H]4C[C@@H]3[C@H]2C[C@H]1C
[9]
  IC50: 530 nM
[1]
  Activity: inactive
[2]
  Activity: inactive
[3]
  Activity: inactive
[4]
  Activity: inactive
[5]
  Activity: inactive
[8]
  IC50: 1000 nM
[6]
  Activity: inactive
[7]
  Activity: inactive

## CC(=O)[C@H]1[C@@H]2C=C[C@@H]3[C@@H](C/C=C\C(N)=O)[C@H](/C=C/C(=O)C4=C(O)[C@H](CCC(=O)O)NC4=O)C[C@@H]3[C@H]2C[C@H]1C
[1]
  Activity: inactive
[2]
  Activity: inactive
[3]
  Activity: inactive
[4]
  Activity: inactive
[5]
  Activity: inactive
[6]
  Activity: inactive
[7]
  Activity: inactive

## CC[C@H]1[C@@H]2C=C[C@H](/C=C/C=C/C(N)=O)[C@H](/C=C/C=C/C(=O)C3=C(O)[C@H](CCC(=O)O)NC3=O)[C@H]2C[C@H]1C
[1]
  Activity: inactive
[2]
  Activity: inactive
[3]
  Activity: inactive
[4]
  Activity: inactive
[5]
  Activity: inactive
[6]
  Activity: inactive
[7]
  Activity: inactive

## CC(=O)[C@H]1[C@@H]2C=C[C@@H]3/C=C/C=C/C(=O)NCC[C@H](O)[C@@H]4NC(=O)C(=C4O)C(=O)/C=C/C=C/[C@@H]3[C@H]2C[C@H]1C
[1]
  Activity: inactive
[2]
  Activity: inactive
[3]
  Activity: inactive
[4]
  Activity: inactive
[5]
  Activity: inactive
[6]
  Activity: inactive
[7]
  Activity: inactive

## CC(=O)[C@H]1[C@@H]2C=C[C@H](/C=C/C=C/C(N)=O)[C@H](/C=C/C=C/C(=O)C3=C(O)[C@H](CCC(=O)O)NC3=O)[C@H]2C[C@H]1C
[1]
  Activity: inactive
[2]
  Activity: inactive
[3]
  Activity: inactive
[4]
  Activity: inactive
[5]
  Activity: inactive
[8]
  IC50: 9600 nM
[6]
  Activity: inactive
[7]
  Activity: inactive

## CC(=O)[C@H]1[C@@H]2C=C[C@@H]3[C@H]4C/C=C\C(=O)NCCC[C@@H]5NC(=O)C(=C5O)C(=O)/C=C/[C@@H]4C[C@@H]3[C@H]2C[C@H]1C
[9]
  IC50: 1400 nM
[1]
  Activity: inactive
[2]
  Activity: inactive
[3]
  Activity: inactive
[4]
  Activity: inactive
[5]
  Activity: inactive
[8]
  IC50: 2400 nM
[6]
  Activity: inactive
[7]
  Activity: inactive
